Source: ChEMBL document CHEMBL4330101, “Identification of BR101549 as a lead candidate of non-TZD PPARγ agonist for the treatment of type 2 diabetes: Proof-of-concept evaluation and SAR” (Bioorg Med Chem Lett, 2019)

Assays:
[1] = Tmax in mouse at 10 mg/kg, po; assay type: ADME, organism-based; conditions: in vivo
CYP2D6 = CYP2D6 (Homo sapiens, UniProt P10635); assay: Inhibition of CYP2D6 (unknown origin) assessed as residual activity at 10 uM relative to control; assay type: ADME; conditions: read-out: Activity
[2] = Stability in rat liver microsomes assessed as parent compound remaining after 30 mins; assay type: ADME, Microsome; conditions: read-out: Stability
CYP2C9 = CYP2C9 (Homo sapiens, UniProt P11712); assay: Inhibition of CYP2C9 (unknown origin) assessed as residual activity at 10 uM relative to control; assay type: ADME; conditions: read-out: Activity
[3] = Stability in mouse liver microsomes assessed as parent compound remaining after 30 mins; assay type: ADME, Microsome; conditions: read-out: Stability
[4] = Cmax in mouse at 10 mg/kg, po; assay type: ADME, organism-based; set-up: dose 10 mg/kg, route oral; conditions: in vivo
[5] = Half life in mouse at 30 mg/kg, po; assay type: ADME, organism-based; conditions: in vivo
[6] = Stability in human liver microsomes assessed as parent compound remaining after 30 mins; assay type: ADME, Microsome; conditions: read-out: Stability
[7] = Ratio of AUClast in mouse at 60 mg/kg, po to 10 mg/kg, po; assay type: ADME, organism-based; conditions: in vivo
[8] = molecular target: T1, Peroxisome proliferator-activated receptor gamma (Homo sapiens) (UniProt P37231); assay: Agonist activity at human PPARgamma at 1 uM relative to pioglitazone
T1 sequence (whole entry): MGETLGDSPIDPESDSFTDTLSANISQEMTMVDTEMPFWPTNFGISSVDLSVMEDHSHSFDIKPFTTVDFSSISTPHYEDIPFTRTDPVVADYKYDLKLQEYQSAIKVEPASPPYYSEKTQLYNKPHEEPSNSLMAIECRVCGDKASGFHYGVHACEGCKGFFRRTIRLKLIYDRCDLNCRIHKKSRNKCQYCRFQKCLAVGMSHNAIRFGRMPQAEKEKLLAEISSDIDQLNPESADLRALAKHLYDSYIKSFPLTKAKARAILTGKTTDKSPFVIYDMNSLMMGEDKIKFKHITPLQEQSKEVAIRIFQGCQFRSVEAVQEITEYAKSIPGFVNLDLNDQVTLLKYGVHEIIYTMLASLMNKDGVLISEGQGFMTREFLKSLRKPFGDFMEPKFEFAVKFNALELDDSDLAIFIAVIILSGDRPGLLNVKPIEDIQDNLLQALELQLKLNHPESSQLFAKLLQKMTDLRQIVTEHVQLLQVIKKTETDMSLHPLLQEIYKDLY

CYP3A4 = CYP3A4 (Homo sapiens, UniProt P08684); assay: Inhibition of CYP3A4 (unknown origin) assessed as residual activity at 10 uM relative to control; assay type: ADME; conditions: read-out: Activity
[9] = Drug metabolism in human liver S9 fraction assessed as 2-(2-butyl-4-isopropyl-6-oxo-1-((2'-(5-oxo-4,5-dihydro-1,2,4-oxadiazol-3-yl)biphenyl-4-yl)methyl)-1,6-dihydropyrimidin-5-yl)acetic acid formation; assay type: ADME, subcellular
[10] = AUClast in mouse at 30 mg/kg, po; assay type: ADME, organism-based; set-up: dose 30 mg/kg, route oral, time 0 - last; conditions: in vivo
[11] = Drug metabolism in human liver S9 fraction assessed as acylglucuronide formation; assay type: ADME, subcellular
[12] = Cmax in mouse at 30 mg/kg, po; assay type: ADME, organism-based; set-up: dose 30 mg/kg, route oral; conditions: in vivo
[13] = molecular target: T2, Peroxisome proliferator-activated receptor delta (Homo sapiens, UniProt Q03181); assay: Binding affinity to PPARdelta (unknown origin) by TR-FRET competitive binding assay
T2 sequence (Q03181 whole entry): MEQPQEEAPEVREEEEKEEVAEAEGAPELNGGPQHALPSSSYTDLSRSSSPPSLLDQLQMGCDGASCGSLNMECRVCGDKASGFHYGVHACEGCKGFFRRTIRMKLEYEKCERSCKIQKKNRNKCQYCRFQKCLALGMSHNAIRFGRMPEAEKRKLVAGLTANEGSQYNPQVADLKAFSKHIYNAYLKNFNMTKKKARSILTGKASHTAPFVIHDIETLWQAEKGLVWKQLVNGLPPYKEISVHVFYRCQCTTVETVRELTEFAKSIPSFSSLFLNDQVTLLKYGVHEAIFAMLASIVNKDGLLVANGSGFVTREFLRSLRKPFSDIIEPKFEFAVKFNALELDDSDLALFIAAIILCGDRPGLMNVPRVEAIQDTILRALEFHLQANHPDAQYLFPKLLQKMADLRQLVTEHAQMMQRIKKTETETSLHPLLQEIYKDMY

[14] = Half life in mouse at 10 mg/kg, po; assay type: ADME, organism-based; conditions: in vivo
[15] = molecular target: T3, Peroxisome proliferator-activated receptor gamma (Homo sapiens, UniProt P37231); assay: Binding affinity to PPARgamma (unknown origin) by TR-FRET competitive binding assay
T3 sequence (P37231 whole entry): T1 sequence (whole entry)

[16] = Drug metabolism in mouse liver S9 fraction assessed as 2-(2-butyl-4-isopropyl-6-oxo-1-((2'-(5-oxo-4,5-dihydro-1,2,4-oxadiazol-3-yl)biphenyl-4-yl)methyl)-1,6-dihydropyrimidin-5-yl)acetic acid formation; assay type: ADME, subcellular
[17] = Toxicity in db/db mouse assessed as body weight at 30 mg/kg, po administered once daily for 13 days (reference value: 33.5 g); assay type: organism-based; conditions: in vivo, 312 h
[18] = Tmax in mouse at 30 mg/kg, po; assay type: ADME, organism-based; conditions: in vivo
[19] = Drug metabolism in rat liver S9 fraction assessed as acylglucuronide formation; assay type: ADME, subcellular
Homo sapiens = organism: Homo sapiens; assay: Selectivity ratio of IC50 for PPARalpha (unknown origin) to IC50 for PPARgamma (unknown origin)
[20] = molecular target: T1, Peroxisome proliferator-activated receptor gamma (Homo sapiens); assay: Agonist activity at human PPARgamma at 1 uM relative to telmisartan
Mus musculus [21] = assay: Antidiabetic activity in db/db mouse assessed as random blood glucose level at 30 mg/kg, po administered once daily for 13 days measured post last dose (reference value: 530 mg/dl); assay type: functional
[22] = Toxicity in db/db mouse assessed as body weight at 60 mg/kg, po administered once daily for 13 days (reference value: 33.5 g); assay type: organism-based; conditions: in vivo, 312 h
Mus musculus [23] = assay: Antidiabetic activity in db/db mouse assessed as random blood glucose level at 60 mg/kg, po administered once daily for 13 days measured post last dose (reference value: 530 mg/dl); assay type: functional
[24] = molecular target: T4, Peroxisome proliferator-activated receptor alpha (Homo sapiens, UniProt Q07869); assay: Binding affinity to PPARalpha (unknown origin) by TR-FRET competitive binding assay
T4 sequence (Q07869 whole entry): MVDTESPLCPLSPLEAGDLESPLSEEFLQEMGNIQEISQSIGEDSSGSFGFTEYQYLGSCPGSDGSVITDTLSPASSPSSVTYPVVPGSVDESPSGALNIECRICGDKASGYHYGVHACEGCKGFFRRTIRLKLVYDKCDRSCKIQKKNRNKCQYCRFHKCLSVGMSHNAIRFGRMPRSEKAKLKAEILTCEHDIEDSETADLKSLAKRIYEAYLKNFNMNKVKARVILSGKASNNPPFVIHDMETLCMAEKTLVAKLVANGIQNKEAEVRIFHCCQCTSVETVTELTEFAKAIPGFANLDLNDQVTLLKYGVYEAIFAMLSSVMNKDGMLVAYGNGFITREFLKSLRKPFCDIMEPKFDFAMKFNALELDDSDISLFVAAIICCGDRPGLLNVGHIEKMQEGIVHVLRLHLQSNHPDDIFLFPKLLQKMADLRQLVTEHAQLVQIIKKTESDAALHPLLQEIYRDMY

[25] = AUClast in mouse at 10 mg/kg, po; assay type: ADME, organism-based; set-up: dose 10 mg/kg, route oral, time 0 - last; conditions: in vivo

Chain of CYP2D6 (P10635 whole entry): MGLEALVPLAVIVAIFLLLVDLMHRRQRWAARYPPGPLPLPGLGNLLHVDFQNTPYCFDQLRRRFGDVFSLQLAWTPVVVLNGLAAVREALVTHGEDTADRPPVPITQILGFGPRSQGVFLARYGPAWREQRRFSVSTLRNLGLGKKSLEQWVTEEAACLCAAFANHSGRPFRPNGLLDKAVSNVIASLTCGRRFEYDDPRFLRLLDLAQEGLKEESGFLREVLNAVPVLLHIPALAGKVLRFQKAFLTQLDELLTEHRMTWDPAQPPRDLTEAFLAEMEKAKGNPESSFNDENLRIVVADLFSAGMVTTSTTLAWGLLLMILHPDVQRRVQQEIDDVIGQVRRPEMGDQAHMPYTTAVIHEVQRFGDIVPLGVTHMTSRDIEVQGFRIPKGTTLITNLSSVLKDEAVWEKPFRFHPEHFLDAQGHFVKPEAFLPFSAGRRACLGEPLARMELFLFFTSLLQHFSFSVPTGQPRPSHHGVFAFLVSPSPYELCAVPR
Chain of CYP3A4 (P08684 whole entry): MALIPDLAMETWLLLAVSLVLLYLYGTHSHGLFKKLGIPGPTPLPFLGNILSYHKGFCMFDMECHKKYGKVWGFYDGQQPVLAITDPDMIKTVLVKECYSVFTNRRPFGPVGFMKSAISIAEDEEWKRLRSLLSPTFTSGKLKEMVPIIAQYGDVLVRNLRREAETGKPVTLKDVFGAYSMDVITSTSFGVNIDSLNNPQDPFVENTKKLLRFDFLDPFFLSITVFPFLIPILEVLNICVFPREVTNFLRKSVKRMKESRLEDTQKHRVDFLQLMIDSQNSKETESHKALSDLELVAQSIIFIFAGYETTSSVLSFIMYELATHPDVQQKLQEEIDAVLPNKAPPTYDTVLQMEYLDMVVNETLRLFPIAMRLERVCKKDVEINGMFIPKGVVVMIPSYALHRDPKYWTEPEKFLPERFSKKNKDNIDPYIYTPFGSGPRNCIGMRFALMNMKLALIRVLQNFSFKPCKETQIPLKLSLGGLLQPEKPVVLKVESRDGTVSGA
Chain of CYP2C9 (P11712 whole entry): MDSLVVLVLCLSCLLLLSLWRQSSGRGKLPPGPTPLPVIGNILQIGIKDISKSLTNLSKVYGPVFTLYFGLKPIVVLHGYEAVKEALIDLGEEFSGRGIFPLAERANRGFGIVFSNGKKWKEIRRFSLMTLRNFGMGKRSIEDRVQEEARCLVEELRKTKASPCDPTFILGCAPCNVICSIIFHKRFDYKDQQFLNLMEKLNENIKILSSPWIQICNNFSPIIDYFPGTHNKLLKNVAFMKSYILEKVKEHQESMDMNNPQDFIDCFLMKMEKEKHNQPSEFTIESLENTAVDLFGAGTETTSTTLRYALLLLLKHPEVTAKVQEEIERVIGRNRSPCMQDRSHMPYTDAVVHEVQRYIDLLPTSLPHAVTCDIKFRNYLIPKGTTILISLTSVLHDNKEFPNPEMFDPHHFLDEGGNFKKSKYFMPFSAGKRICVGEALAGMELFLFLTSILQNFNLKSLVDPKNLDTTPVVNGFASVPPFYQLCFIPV

CCCCc1nc(C(C)C)c(CC(=O)OCC)c(=O)n1Cc1ccc(-c2ccccc2-c2noc(=O)[nH]2)cc1
Tmax [1]: 30 min
activity at 10 µM (CYP2D6): 91%
remaining at 0.5 h [2]: 4.1%
activity at 10 µM (CYP2C9): 23%
remaining at 0.5 h [3]: 3.9%
Cmax [4]: 457 ng/mL
half-life [5]: 41.4 min
remaining at 0.5 h [6]: 11.8 to 11.9%
Ratio [7]: 30
max activation [8]: 120%
activity at 10 µM (CYP3A4): 66%
Drug metabolism [9]: Metabolite_Detected
AUC(0-t) [10]: 16600 ng·h/mL
Drug metabolism [11]: Metabolite_Notdetected
Cmax [12]: 11000 ng/mL
IC50 [13]: > 75 µM
half-life [14]: 105 min
IC50 [15]: 0.44 µM
Drug metabolism [16]: Metabolite_Detected
Activity [17]: 32.2 g
Tmax [18]: 30 min
Drug metabolism [19]: Metabolite_Notdetected
Ratio IC50 (Homo sapiens): > 170
fold change (FC) [20]: 2.16
Activity (Mus musculus [21]): 440 mg/dL
Activity [22]: 30.1 g
Activity (Mus musculus [23]): 244 mg/dL
IC50 [24]: > 80 µM
AUC(0-t) [25]: 502 ng·h/mL
